Results published in patent US11938200B2, “Non-nutritive sweeteners and polyols as imaging agents” (THE TRUSTEES OF THE UNIVERSITY OF PENNSYLVANIA, priority 2016, dated 2024).

Legend:
[1] = system: mouse tumors; assay: CEST MRI of tumor-bearing animals before and after sucralose injection; format: in vivo; details: tumor region; sucralose 100 mM intra peritoneally; at 40 minutes; vs baseline
Protocol: (§1) Different concentration of Splenda and sucralose were prepared in PBS and all the experiments were performed at 37° C. on a 9.4 T horizontal bore small animal MR scanner (Varian, Palo Alto, CA). CEST images were acquired at different saturation power and saturation lengths from frequency offset −5 to 5 ppm in step size of 0.1 ppm. Acquired CEST images were corrected for B0 and used to generate CEST contrast map using Equation [1].
(§2) [formula] where S−ve and S+ve are the B0 corrected MRI signals obtained at −1 ppm and +1 ppm respectively, and S0 is the image obtained without any saturation. CEST contrast was further corrected for B1 and mapped as false-colors onto anatomical proton image. The CEST asymmetry plots were generated by plotting the relative water signal difference at frequency offset from 0 to 4.8 ppm. • FIG. 1: Z-spectra (A), asymmetry plot (B), and CEST map (C) of CEST effect from 0.5% Splenda. […]
(§3) Imaging was performed in tumor-bearing animals at a 9.4 T horizontal bore Varian system. […] Respiration and body temperature were continuously monitored using a MRI-compatible small animal monitor system (SA Instruments, Inc., Stony Brook, NY). CEST imaging was performed using a custom-programmed, segmented radiofrequency GRE readout pulse sequence, with a frequency selective continuous wave saturation preparation pulse. […]

[2] = system: rat brain tumor; assay: SWEETEST (CEST) MRI, sucralose injection studies in a rat brain tumor; format: in vivo; details: sucralose 300 mM via tail vein, 40 minute post injection, vs baseline
Protocol: as §1, §2, §3

Structure (SMILES): OC[C@H]1O[C@H](O[C@]2(CCl)O[C@H](CCl)[C@@H](O)[C@@H]2O)[C@H](O)[C@@H](O)[C@H]1Cl [sucralose]
- percent change in the contrast post injection of sucralose [1]: about 100%
- increase in SWEETEST contrast [2]: ~80%
